Experimental data as given in ChEMBL document CHEMBL5247659, “Design, Structure-Activity Relationships, and In Vivo Evaluation of Potent and Brain-Penetrant Imidazo[1,2-b]pyridazines as Glycogen Synthase Kinase-3β (GSK-3β) Inhibitors” (J Med Chem, 2023).
≈ marks a conversion by molar mass, not a printed value.

Legend:
[1] = biological target: Interleukin-1 receptor-associated kinase 1 (Homo sapiens, UniProt P51617); test: Inhibition of IRAK1 (unknown origin)
[2] = biological target: Tyrosine-protein kinase JAK2 (Homo sapiens, UniProt O60674); test: Inhibition of JAK2 (unknown origin)
[3] = Unbound brain-to-plasma concentration ratio in triple transgenic C57BL6 alzheimer disease mouse model at 30 mg/kg, po measured after 5 hrs; type: ADME, organism-based; details: read-out: K(p,uu,brain)
[4] = Metabolic stability in mouse liver microsomes assessed as parent compound remaining at 0.5 uM incubated for 10 mins by LC-MS/MS analysis; type: ADME, Microsome; details: read-out: Stability
[5] = biological target: Tyrosine-protein kinase SYK (Homo sapiens, UniProt P43405); test: Inhibition of SYK (unknown origin)
[6] = test system: Mus musculus; test: Antialzheimer activity against triple transgenic C57BL6 mouse model assessed as reduction in tau phosphorylation at S396 at 30 mg/kg, po measured 5 hrs post dose by ELISA relative to control; type: functional; design: scale not given: the % may be the effect or the level left
[7] = biological target: Cytoplasmic tyrosine-protein kinase BMX (Homo sapiens, UniProt P51813); test: Inhibition of BMX (unknown origin)
[8] = Permeability of compound at pH 5.5 incubated for 4 hrs by PAMPA assay; type: ADME; details: read-out: permeability
[9] = biological target: Aurora kinase A (Mus musculus, UniProt P97477); test: Inhibition of mouse AURA
[10] = Half life in 8 hr fasted C57BL6 mouse at 2 mg/kg, iv; type: ADME, organism-based; details: in vivo
[11] = biological target: Ribosomal protein S6 kinase alpha-1 (Homo sapiens, UniProt Q15418); test: Inhibition of RSK1 (unknown origin)
[12] = biological target: Tyrosine-protein kinase TXK (Homo sapiens, UniProt P42681); test: Inhibition of TXK (unknown origin)
[13] = biological target: Glycogen synthase kinase-3 alpha (Homo sapiens, UniProt P49840); test: Inhibition of full length GST-tagged human recombinant GSK3-alpha using FL-KRREILSRRP[ps]ERYR-NH2 as substrate incubated for 20 hrs
[14] = Cmax in 8 hr fasted C57BL6 mouse at 10 mg/kg, po; type: ADME, organism-based; design: dose 10 mg/kg, route po; details: in vivo
[15] = Inhibition of N-terminal 6-His tagged human recombinant GSK3-beta H355L mutant using FL-KRREILSRRP[ps]ERYR-NH2 as substrate incubated for 20 hrs
[16] = biological target: Insulin-like growth factor 1 receptor (Homo sapiens, UniProt P08069); test: Inhibition of IGF1R (unknown origin)
[17] = Aqueous solubility of compound in potassium phosphate buffer at pH 7.4 at 1 mg/ml measured after 18 to 24 hrs by HPLC-UV based analysis; type: physicochemical; details: time 18-24 hrs
[18] = biological target: Mast/stem cell growth factor receptor Kit (Homo sapiens, UniProt P10721); test: Inhibition of cKIT (unknown origin)
[19] = biological target: Protein kinase C theta type (Homo sapiens, UniProt Q04759); test: Inhibition of PKCtheta (unknown origin)
[20] = Drug exposure in triple transgenic C57BL6 alzheimer disease mouse brain at 30 mg/kg, po measured after 5 hrs; type: ADME, organism-based; details: read-out: Ct
[21] = biological target: Platelet-derived growth factor receptor beta (Homo sapiens, UniProt P09619); test: Inhibition of PDGFRbeta (unknown origin)
[22] = biological target: Cyclin-dependent kinase 5 (Homo sapiens, UniProt Q00535); test: Inhibition of CDK5 (unknown origin)
Chain of Cyclin-dependent kinase 5 (Q00535 whole entry): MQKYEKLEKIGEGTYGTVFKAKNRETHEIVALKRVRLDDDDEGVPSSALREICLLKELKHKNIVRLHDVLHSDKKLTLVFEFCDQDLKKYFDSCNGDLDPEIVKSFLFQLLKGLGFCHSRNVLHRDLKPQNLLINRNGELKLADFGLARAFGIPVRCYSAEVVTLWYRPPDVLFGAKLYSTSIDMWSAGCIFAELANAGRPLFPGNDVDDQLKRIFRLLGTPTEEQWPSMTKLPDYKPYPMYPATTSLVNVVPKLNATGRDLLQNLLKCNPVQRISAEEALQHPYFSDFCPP

[23] = biological target: Tyrosine-protein kinase Lyn (Homo sapiens, UniProt P07948); test: Inhibition of LynA (unknown origin)
[24] = biological target: Tyrosine-protein kinase BTK (Homo sapiens, UniProt Q06187); test: Inhibition of BTK (unknown origin)
Chain of Tyrosine-protein kinase BTK (Q06187 whole entry): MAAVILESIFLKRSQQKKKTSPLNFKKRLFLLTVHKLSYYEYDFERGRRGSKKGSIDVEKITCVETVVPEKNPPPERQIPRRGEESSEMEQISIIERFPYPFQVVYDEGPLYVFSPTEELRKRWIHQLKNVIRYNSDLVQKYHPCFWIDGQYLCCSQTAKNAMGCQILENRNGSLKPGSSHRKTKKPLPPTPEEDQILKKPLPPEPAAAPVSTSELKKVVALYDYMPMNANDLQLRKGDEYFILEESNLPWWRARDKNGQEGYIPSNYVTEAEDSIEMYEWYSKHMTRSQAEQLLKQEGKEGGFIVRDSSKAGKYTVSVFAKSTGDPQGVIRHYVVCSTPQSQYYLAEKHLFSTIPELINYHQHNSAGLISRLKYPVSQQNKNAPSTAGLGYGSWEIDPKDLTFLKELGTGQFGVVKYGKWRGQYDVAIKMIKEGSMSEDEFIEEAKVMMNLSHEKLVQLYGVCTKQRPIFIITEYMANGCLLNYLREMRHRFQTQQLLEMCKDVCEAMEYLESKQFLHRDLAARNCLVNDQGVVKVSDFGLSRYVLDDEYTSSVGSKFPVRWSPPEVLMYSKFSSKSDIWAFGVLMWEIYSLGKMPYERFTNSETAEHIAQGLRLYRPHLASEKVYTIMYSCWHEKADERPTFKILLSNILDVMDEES

[25] = Metabolic stability in human liver microsomes assessed as parent compound remaining at 0.5 uM incubated for 10 mins by LC-MS/MS analysis; type: ADME, Microsome; details: read-out: Stability
[26] = biological target: Non-receptor tyrosine-protein kinase TYK2 (Homo sapiens, UniProt P29597); test: Inhibition of TYK2 (unknown origin)
[27] = biological target: Tyrosine-protein kinase JAK1 (Homo sapiens, UniProt P23458); test: Inhibition of JAK1 (unknown origin)
Chain of Tyrosine-protein kinase JAK1 (P23458 whole entry): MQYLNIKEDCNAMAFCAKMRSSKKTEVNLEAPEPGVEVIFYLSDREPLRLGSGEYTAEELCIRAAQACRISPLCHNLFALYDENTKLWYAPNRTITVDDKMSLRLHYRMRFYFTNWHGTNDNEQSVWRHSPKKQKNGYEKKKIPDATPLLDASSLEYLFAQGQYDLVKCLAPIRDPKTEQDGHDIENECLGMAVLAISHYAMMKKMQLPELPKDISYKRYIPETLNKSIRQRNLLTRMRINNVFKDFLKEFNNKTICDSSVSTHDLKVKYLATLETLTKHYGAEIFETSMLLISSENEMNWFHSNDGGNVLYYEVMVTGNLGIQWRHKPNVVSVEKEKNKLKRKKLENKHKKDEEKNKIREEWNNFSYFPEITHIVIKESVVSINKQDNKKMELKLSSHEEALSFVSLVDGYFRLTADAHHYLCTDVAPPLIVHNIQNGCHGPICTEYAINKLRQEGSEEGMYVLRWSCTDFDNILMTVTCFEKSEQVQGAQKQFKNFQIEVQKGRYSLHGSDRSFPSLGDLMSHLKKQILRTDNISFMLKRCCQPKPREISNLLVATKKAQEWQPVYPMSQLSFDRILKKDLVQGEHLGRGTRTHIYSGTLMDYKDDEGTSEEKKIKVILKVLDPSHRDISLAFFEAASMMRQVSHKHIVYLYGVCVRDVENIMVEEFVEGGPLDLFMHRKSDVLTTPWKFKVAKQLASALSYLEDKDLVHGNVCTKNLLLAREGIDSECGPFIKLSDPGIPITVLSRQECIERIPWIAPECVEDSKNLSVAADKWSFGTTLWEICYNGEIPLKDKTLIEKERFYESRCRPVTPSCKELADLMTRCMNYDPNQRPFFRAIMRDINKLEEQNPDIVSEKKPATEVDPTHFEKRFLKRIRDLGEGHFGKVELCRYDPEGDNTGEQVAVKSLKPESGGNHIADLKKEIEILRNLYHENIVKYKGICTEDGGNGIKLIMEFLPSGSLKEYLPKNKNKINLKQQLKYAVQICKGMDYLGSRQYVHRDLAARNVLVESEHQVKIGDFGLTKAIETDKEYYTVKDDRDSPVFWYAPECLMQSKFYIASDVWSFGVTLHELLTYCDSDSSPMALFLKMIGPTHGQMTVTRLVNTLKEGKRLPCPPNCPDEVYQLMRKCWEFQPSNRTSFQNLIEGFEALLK

[28] = biological target: Mitogen-activated protein kinase 14 (Homo sapiens, UniProt Q16539); test: Inhibition of p38alpha (unknown origin)
Chain of Mitogen-activated protein kinase 14 (Q16539 whole entry): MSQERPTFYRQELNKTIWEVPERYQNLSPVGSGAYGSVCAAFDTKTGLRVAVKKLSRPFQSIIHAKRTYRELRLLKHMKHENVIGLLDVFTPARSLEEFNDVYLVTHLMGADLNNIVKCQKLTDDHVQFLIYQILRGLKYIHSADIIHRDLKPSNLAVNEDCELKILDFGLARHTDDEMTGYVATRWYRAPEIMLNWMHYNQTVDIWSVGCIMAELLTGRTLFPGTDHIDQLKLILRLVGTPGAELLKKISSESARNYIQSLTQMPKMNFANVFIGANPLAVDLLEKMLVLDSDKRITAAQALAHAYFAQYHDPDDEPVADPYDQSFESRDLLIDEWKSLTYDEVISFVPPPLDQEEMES

[29] = Aqueous solubility of compound in potassium phosphate buffer at pH 1 at 1 mg/ml measured after 18 to 24 hrs by HPLC-UV based analysis; type: physicochemical; details: time 18-24 hrs
[30] = AUC tot in 8 hr fasted C57BL6 mouse at 10 mg/kg, po; type: ADME, organism-based; design: dose 10 mg/kg, route po; details: in vivo
[31] = biological target: Serine/threonine-protein kinase pim-1 (Homo sapiens, UniProt P11309); test: Inhibition of PIM1 (unknown origin)
Chain of Serine/threonine-protein kinase pim-1 (P11309 whole entry): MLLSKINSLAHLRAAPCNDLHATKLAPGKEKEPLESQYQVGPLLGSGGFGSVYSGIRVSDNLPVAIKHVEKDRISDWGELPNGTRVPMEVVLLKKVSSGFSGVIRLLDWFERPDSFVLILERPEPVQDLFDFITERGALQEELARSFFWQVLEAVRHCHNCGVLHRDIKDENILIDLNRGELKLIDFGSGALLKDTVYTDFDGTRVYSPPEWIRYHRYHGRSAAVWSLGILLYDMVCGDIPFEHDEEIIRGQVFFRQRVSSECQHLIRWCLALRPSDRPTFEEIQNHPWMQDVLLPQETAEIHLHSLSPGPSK

[32] = biological target: Aurora kinase B (Homo sapiens, UniProt Q96GD4); test: Inhibition of Aurora B (unknown origin)
Chain of Aurora kinase B (Q96GD4 whole entry): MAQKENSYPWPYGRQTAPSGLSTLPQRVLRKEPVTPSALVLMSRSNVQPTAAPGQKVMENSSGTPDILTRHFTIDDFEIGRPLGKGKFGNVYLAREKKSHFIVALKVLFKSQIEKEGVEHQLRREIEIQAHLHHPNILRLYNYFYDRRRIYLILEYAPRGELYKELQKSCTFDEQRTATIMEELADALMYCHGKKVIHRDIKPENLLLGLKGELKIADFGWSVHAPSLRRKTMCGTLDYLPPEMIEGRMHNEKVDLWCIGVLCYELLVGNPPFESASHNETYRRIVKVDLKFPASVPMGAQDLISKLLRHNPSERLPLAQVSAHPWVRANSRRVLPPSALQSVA

[33] = Permeability of compound at pH 7.4 incubated for 4 hrs by PAMPA assay; type: ADME; details: read-out: permeability
[34] = biological target: MAP kinase-activated protein kinase 2 (Homo sapiens, UniProt P49137); test: Inhibition of MK2 (unknown origin)
Chain of MAP kinase-activated protein kinase 2 (P49137 whole entry): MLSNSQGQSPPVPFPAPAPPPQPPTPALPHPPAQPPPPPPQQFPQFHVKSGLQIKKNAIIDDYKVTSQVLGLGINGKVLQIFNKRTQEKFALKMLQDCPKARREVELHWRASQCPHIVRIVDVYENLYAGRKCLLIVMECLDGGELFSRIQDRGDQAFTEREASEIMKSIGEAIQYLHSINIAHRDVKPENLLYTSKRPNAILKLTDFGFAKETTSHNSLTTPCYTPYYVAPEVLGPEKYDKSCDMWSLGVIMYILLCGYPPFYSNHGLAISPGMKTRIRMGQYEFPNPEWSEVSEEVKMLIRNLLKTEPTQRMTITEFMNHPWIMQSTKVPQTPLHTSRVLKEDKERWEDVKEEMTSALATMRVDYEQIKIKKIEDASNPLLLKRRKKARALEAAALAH

[35] = biological target: Tyrosine-protein kinase ITK/TSK (Homo sapiens, UniProt Q08881); test: Inhibition of ITK (unknown origin)
Chain of Tyrosine-protein kinase ITK/TSK (Q08881 whole entry): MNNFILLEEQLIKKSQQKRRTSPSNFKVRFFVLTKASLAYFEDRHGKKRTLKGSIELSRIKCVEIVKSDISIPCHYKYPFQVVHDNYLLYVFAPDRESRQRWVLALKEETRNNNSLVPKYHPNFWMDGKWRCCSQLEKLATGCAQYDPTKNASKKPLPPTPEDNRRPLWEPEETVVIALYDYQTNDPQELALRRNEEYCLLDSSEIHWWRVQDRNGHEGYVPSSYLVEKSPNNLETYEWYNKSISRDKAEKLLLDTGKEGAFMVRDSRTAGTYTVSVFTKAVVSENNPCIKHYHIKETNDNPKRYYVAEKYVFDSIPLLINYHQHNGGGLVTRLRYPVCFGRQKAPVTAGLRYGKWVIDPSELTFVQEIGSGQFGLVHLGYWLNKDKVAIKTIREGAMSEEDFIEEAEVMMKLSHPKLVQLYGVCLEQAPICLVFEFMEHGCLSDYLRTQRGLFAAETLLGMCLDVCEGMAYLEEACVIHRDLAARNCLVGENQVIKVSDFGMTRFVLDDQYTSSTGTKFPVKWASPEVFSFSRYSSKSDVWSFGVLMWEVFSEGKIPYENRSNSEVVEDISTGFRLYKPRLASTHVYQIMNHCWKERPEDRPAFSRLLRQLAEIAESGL

[36] = biological target: P-glycoprotein (ABCB1) (Homo sapiens, UniProt P08183); test: Substrate activity at P-glycoprotein in human Caco-2 cells assessed as efflux ratio of permeability across basolateral to apical side over apical to basolateral side at 3 uM incubated for 2 hrs by LC-MS/MS analysis; type: ADME, cell-based
[37] = biological target: AP2-associated protein kinase 1 (Homo sapiens, UniProt Q2M2I8); test: Inhibition of AAK1 (unknown origin)
[38] = Permeability across basolateral to apical side in human Caco-2 cells at 3 uM incubated for 2 hrs by LC-MS/MS analysis; type: ADME, cell-based; details: read-out: permeability
[39] = Inhibition of tau 4R1N phosphorylation (unknown origin) at S396 residue transfected in human U2OS cells coexpressing GFP-tagged beta catenin incubated overnight by high content imaging assay
[40] = Plasma protein binding in mouse assessed as unbound fraction at 10 uM measured for 5 hrs by equilibrium dialysis based LC-MS/MS analysis; type: ADME, cell-free
[41] = biological target: Tyrosine-protein kinase Lck (Homo sapiens, UniProt P06239); test: Inhibition of LCK (unknown origin)
[42] = MRT in 8 hr fasted C57BL6 mouse at 2 mg/kg, iv; type: ADME, organism-based; details: in vivo
[43] = biological target: Cyclin-dependent kinase 2 (Homo sapiens, UniProt P24941); test: Inhibition of CDK2 (unknown origin)
[44] = Solubility of compound in fasted state simulated intestinal fluid of pH 6.5 at 1 mg/ml measured after 18 to 24 hrs by HPLC-UV based analysis; type: ADME; details: time 18-24 hrs
[45] = biological target: Casein kinase II subunit alpha' (Homo sapiens, UniProt P19784); test: Inhibition of CK2A2 (unknown origin)
Chain of Casein kinase II subunit alpha' (P19784 whole entry): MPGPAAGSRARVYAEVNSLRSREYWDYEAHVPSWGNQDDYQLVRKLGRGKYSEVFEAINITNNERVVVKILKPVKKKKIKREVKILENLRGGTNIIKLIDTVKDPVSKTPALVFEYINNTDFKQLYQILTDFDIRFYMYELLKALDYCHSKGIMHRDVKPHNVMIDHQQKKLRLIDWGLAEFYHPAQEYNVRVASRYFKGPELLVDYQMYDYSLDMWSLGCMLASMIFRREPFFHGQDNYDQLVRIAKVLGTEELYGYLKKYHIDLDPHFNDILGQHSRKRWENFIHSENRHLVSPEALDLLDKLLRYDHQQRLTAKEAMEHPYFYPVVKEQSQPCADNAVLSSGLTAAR

[46] = biological target: Interleukin-1 receptor-associated kinase 4 (Homo sapiens, UniProt Q9NWZ3); test: Inhibition of IRAK4 (unknown origin)
Chain of Interleukin-1 receptor-associated kinase 4 (Q9NWZ3 whole entry): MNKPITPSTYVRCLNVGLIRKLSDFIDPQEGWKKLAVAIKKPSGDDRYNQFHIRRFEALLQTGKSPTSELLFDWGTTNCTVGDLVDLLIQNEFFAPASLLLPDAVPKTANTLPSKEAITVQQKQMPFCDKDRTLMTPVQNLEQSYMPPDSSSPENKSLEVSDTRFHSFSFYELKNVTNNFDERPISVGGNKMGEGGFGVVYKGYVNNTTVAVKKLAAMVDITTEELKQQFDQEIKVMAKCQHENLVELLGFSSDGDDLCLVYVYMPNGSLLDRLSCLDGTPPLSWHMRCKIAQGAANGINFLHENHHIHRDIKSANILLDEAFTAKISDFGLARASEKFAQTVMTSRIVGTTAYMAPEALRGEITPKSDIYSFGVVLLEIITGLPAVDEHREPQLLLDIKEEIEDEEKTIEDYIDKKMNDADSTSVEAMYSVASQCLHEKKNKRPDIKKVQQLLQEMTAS

[47] = Ratio of drug level in brain to plasma of triple transgenic C57BL6 alzheimer disease mouse at 30 mg/kg, po measured after 5 hrs; type: ADME, organism-based; details: read-out: BPR
[48] = Unbound fraction in triple transgenic C57BL6 alzheimer disease model mouse brain homogenate at 30 mg/kg, po measured after 5 hrs; type: ADME, organism-based
[49] = Drug exposure in triple transgenic C57BL6 alzheimer disease mouse plasma at 30 mg/kg, po measured after 5 hrs; type: ADME, organism-based
[50] = biological target: Casein kinase II subunit alpha (Homo sapiens, UniProt P68400); test: Inhibition of CK2A1 (unknown origin)
[51] = Plasma protein binding in human assessed as unbound fraction at 10 uM measured for 5 hrs by equilibrium dialysis based LC-MS/MS analysis; type: ADME, cell-free
[52] = Permeability across apical to basolateral side in human Caco-2 cells at 3 uM incubated for 2 hrs by LC-MS/MS analysis; type: ADME, cell-based; details: read-out: permeability
[53] = Solubility of compound in fed state simulated intestinal fluid of pH 5 at 1 mg/ml measured after 18 to 24 hrs by HPLC-UV based analysis; type: ADME; details: time 18-24 hrs
[54] = Clearance in 8 hr fasted C57BL6 mouse at 2 mg/kg, iv; type: ADME, organism-based; details: in vivo
[55] = Oral bioavailability in 8 hr fasted C57BL6 mouse at 10 mg/kg; type: ADME, organism-based; details: in vivo
[56] = Volume of distribution at steady state in 8 hr fasted C57BL6 mouse at 2 mg/kg, iv; type: ADME, organism-based; details: in vivo, read-out: Vdss

For `CC1CN(c2ccncc2NC(=O)c2ccnn3cc(-c4ccccc4)nc23)CCO1` (racemic), the IC50 [1] was > 2 µM, the IC50 [2] was > 2 µM and the Kp uu at 5 h [3] was 0.34. The remaining at 10 min, 0.5 µM [4] was 7%, the IC50 [5] was > 2 µM and the Activity [6] was 52%. For the same compound, the IC50 [7] was > 2 µM, the Papp at 4 h [8] was 100 ×10⁻⁶ cm/s and the IC50 [9] was > 50 µM. For the same compound, the half-life [10] was 5.2 h, the IC50 [11] was > 50 µM and the IC50 [12] was > 2 µM. For the same compound, the IC50 [13] was 0.00035 µM, the Cmax [14] was 7.8 µM and the IC50 [15] was 0.00073 µM. For the same compound, the IC50 [16] was > 50 µM, the solubility [17] was 14 µg/mL (≈ 33.8 µM) and the IC50 [18] was > 50 µM. The IC50 [19] was 0.36 µM, the concentration at 5 h [20] was 1.3 µM and the IC50 [21] was > 50 µM. For the same compound, the IC50 [22] was 6.4 µM, the IC50 [23] was > 2 µM and the IC50 [24] was > 2 µM. For the same compound, the remaining at 10 min, 0.5 µM [25] was 17%, the IC50 [26] was > 2 µM and the IC50 [27] was > 2 µM. The IC50 [28] was > 2 µM, the solubility [29] was 1220 µg/mL (≈ 2940 µM) and the AUC [30] was 68.3 µM·h. For the same compound, the IC50 [31] was 0.38 µM, the IC50 [32] was > 2 µM and the Papp at 4 h [33] was 80.6 ×10⁻⁶ cm/s. The IC50 [34] was > 50 µM, the IC50 [35] was > 2 µM and the efflux ratio at 2 h, 3 µM [36] was < 1. It also gave an IC50 [37] of 0.2 µM, a Papp B→A at 2 h, 3 µM [38] of 7.1 ×10⁻⁶ cm/s and an IC50 [39] of 0.058 µM. For the same compound, the fraction unbound at 5 h, 10 µM [40] was 0.009, the IC50 [41] was > 2 µM and the MRT [42] was 4.8 h. For the same compound, the IC50 [43] was 1.4 µM, the solubility [44] was 21 µg/mL (≈ 50.7 µM) and the IC50 [45] was > 2 µM. For the same compound, the IC50 [46] was > 2 µM, the Kp at 5 h [47] was 0.34 and the fraction unbound at 5 h [48] was 0.009. The concentration at 5 h [49] was 3.8 µM, the IC50 [50] was > 2 µM and the fraction unbound at 5 h, 10 µM [51] was 0.008. For the same compound, the Papp A→B at 2 h, 3 µM [52] was 13.8 ×10⁻⁶ cm/s, the solubility [53] was 788 µg/mL (≈ 1900 µM) and the clearance [54] was 3.8 mL/min/kg. The bioavailability [55] was 64% and the Vd [56] was 1.1 L/kg.
